Active and inactive are the calls of the source. No cut-off for these calls is given here.
Legend:
[1] = target: Sodium-dependent serotonin transporter (Rattus norvegicus) (UniProt P31652); assay: Displacement of [3H]5-HT from of SERT in rat midbrain homogenates at 10 uM after 5 mins by scintillation counting; format: tissue-based
[2] = target: T1, 5-hydroxytryptamine receptor 7 (Homo sapiens, UniProt P34969); assay: Displacement of [3H]5-CT from human 5HT7 receptor expressed in HEK293 cells after 1 hr by liquid scintillation counting; format: cell-based
[3] = target: Sodium-dependent serotonin transporter (Rattus norvegicus) (UniProt P31652); assay: Displacement of [3H]5-HT from of SERT in rat midbrain homogenates at 1 uM after 5 mins by scintillation counting; format: tissue-based
Mus musculus [4] = assay: Toxicity in albino mouse assessed as increase in locomotor activity at 10 mg/kg, ip; format: organism-based; parameters: dose 10 mg/kg, route intraperitoneal; conditions: in vivo
Mus musculus [5] = assay: Antidepressant activity in albino mouse assessed as reduction of immobility time at 10 mg/kg, ip qd for 15 days by forced swimming test; format: functional, organism-based; parameters: dose 10 mg/kg
[6] = target: T1, 5-hydroxytryptamine receptor 7; assay: Inverse agonist activity at human 5HT7 receptor expressed in HEK293 cells assessed as effect on cAMP production after 20 mins; format: functional, cell-based
[7] = target: T1, 5-hydroxytryptamine receptor 7; assay: Antagonist activity at human 5HT7 receptor expressed in HEK293 cells assessed as inhibition of serotonin-induced cAMP production after 20 mins; format: functional, cell-based
Mus musculus [8] = assay: Antidepressant activity in albino mouse assessed as reduction of immobility time at 10 mg/kg, ip measured for 4 mins by forced swimming test; format: functional, organism-based; parameters: dose 10 mg/kg
[9] = target: Sodium-dependent serotonin transporter (Rattus norvegicus, UniProt P31652); assay: Displacement of [3H]5-HT from of SERT in rat midbrain homogenates after 5 mins by scintillation counting; format: tissue-based
[10] = target: T2, 5-hydroxytryptamine receptor 1A (Homo sapiens, UniProt P08908); assay: Binding affinity to 5HT1A receptor
T2 sequence (P08908 whole entry): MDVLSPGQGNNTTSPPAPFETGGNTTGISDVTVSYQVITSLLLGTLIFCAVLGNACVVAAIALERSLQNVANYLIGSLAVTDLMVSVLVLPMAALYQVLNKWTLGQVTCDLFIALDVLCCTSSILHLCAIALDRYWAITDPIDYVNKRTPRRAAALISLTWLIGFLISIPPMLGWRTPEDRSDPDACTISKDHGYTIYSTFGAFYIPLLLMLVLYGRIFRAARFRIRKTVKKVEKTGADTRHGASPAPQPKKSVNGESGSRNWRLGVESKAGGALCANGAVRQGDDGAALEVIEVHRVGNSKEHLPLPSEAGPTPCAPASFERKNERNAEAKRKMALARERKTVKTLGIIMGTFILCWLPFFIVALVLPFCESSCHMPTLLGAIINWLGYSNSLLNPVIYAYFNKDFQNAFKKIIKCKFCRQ

[11] = target: T1, 5-hydroxytryptamine receptor 7; assay: Partial agonist activity at human 5HT7 receptor expressed in HEK293 cells assessed as effect on cAMP production after 20 mins; format: functional, cell-based
[12] = target: T1, 5-hydroxytryptamine receptor 7; assay: Partial antagonist activity at human 5HT7 receptor expressed in HEK293 cells assessed as inhibition of serotonin-induced cAMP production after 20 mins; format: functional, cell-based
Mus musculus [13] = assay: Antidepressant activity in albino mouse assessed as reduction of immobility time at 10 to 20 mg/kg, ip measured up to 4 mins by forced swimming test; format: functional, organism-based
Mus musculus [14] = assay: Antidepressant activity in albino mouse assessed as reduction of immobility time at 20 mg/kg, ip qd for 15 days by forced swimming test; format: functional, organism-based; parameters: dose 20 mg/kg

T1 sequence (P34969 whole entry): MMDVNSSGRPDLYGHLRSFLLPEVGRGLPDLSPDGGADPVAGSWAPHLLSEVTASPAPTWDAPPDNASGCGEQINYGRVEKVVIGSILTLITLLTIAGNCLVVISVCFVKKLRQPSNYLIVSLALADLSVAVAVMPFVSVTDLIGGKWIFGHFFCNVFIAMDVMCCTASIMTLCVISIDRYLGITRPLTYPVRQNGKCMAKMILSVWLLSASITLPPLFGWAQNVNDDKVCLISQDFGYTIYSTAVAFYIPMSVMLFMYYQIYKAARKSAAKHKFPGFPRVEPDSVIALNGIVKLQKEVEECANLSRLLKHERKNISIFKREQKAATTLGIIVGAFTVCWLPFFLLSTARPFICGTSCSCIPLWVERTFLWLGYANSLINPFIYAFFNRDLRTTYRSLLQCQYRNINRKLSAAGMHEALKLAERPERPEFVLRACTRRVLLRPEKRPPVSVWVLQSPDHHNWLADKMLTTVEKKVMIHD
Sodium-dependent serotonin transporter (Rattus norvegicus), sequence (P31652 whole entry): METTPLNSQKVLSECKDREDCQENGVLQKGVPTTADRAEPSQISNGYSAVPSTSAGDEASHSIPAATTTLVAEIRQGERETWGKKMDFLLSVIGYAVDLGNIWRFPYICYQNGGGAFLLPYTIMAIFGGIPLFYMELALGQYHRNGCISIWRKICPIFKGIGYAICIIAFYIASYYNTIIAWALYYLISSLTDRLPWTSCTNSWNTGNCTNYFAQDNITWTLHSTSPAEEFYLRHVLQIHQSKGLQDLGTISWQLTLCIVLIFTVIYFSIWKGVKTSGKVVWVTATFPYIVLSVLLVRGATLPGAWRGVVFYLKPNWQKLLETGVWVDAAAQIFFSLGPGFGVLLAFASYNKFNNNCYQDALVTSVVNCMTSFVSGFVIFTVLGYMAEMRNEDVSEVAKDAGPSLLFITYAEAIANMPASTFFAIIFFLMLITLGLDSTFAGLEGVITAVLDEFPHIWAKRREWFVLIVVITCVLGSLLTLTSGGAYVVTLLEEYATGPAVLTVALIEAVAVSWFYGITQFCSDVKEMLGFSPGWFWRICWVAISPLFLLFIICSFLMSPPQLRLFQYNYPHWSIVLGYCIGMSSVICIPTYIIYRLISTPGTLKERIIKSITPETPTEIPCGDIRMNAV
Sodium-dependent serotonin transporter, sequence (P31652 whole entry): as above

OC(CCN1CCC(N2CCOCC2)CC1)c1csc2ccccc12 (stereo unspecified)
inhibition [1]: 63.6% | Ki [2]: 27.5 µM | inhibition [3]: 2.2%

O=C(CCN1CCC(N2CCOCC2)CC1)c1csc2ccccc12
inhibition [1]: 30.2% | Ki [2]: 53.7 µM | inhibition [3]: 11.1%

O=C(CCN1CCCN(c2ccc([N+](=O)[O-])cc2C(F)(F)F)CC1)c1csc2ccccc12
Ki [2]: > 100 µM

N#Cc1ccc(N2CCCN(CCC(O)c3csc4ccccc34)CC2)cc1 (stereo unspecified)
inhibition [1]: 36.7% | Activity (Mus musculus [4]): Non-toxic | Ki [2]: 0.263 µM | Activity (Mus musculus [5]): Active | Activity [6]: Active | Activity [7]: Active | inhibition [3]: 19.7% | Activity (Mus musculus [8]): Active | IC50 [9]: 57.8 µM | Ki [10]: 3.16 µM

O=C(CCNC1CCN(c2ccc([N+](=O)[O-])cc2C(F)(F)F)CC1)c1csc2ccccc12
Activity [11]: Active | inhibition [1]: 62.8% | Ki [2]: 9.12 µM | Activity [7]: Active | inhibition [3]: 26.9%

Nc1ccc(N2CCN(CCC(=O)c3csc4ccccc34)CC2)cc1
Ki [2]: 14.1 µM

O=C(CCNC1CCN(c2ccc([N+](=O)[O-])cc2)CC1)c1csc2ccc(F)cc12
Activity [12]: Active | inhibition [1]: 35% | Ki [2]: 4.79 µM | Activity [7]: Active | inhibition [3]: 3.1%

CNCCC(Oc1ccc(C(F)(F)F)cc1)c1ccccc1 (stereo unspecified)
Activity (Mus musculus [13]): inactive | Activity (Mus musculus [14]): Active

O=C(CCN[C@@H]1CCN(c2ccc([N+](=O)[O-])cc2)C1)c1csc2ccccc12
inhibition [1]: 45.4% | Ki [2]: > 100 µM | inhibition [3]: 9%

O=C(CCN1CC[C@@H](Nc2ccc([N+](=O)[O-])cc2)C1)c1csc2ccccc12
inhibition [1]: 76.5% | Ki [2]: > 100 µM | inhibition [3]: 17.9%

O=C(CCN1CCN(c2ccc([N+](=O)[O-])cc2)CC1)c1csc2ccc(F)cc12
inhibition [1]: 16.3% | Ki [2]: 91.2 µM | inhibition [3]: 0%

N#Cc1ccc(N2CCN(CCC(O)c3csc4ccccc34)CC2)cc1 (stereo unspecified)
inhibition [1]: 57.7% | Ki [2]: 12.6 µM | Activity [6]: Active | Activity [7]: Active | inhibition [3]: 43.5%

N#Cc1ccc(N2CCN(CCC(=O)c3csc4ccccc34)CC2)cc1
inhibition [1]: 38.2% | Ki [2]: > 100 µM | inhibition [3]: 5.4%

O=C(CCN1CCN(c2ccc([N+](=O)[O-])cc2)CC1)c1csc2ccccc12
inhibition [1]: 33.2% | Ki [2]: > 100 µM | inhibition [3]: 2.1%

O=[N+]([O-])c1ccc(N2CCC(NCCC(O)c3csc4ccccc34)C2)cc1 (single isomer, unassigned)
inhibition [1]: 49.2% | Ki [2]: > 100 µM | inhibition [3]: 28.1%

O=C(CCN[C@H]1CCN(c2ccc([N+](=O)[O-])cc2C(F)(F)F)C1)c1csc2ccccc12
inhibition [1]: 97.9% | Activity (Mus musculus [4]): Non-toxic | Ki [2]: > 100 µM | Activity (Mus musculus [5]): Active | inhibition [3]: 28.4% | IC50 [9]: 7.02 µM | Ki [10]: 0.0501 µM

N#Cc1ccc(N2CCCN(CCC(=O)c3csc4ccccc34)CC2)cc1
inhibition [1]: 63.1% | Ki [2]: 15.1 µM | inhibition [3]: 1.2%

O=C(CCN[C@H]1CCN(c2ccc([N+](=O)[O-])cc2)C1)c1csc2ccccc12
inhibition [1]: 36.6% | Ki [2]: > 100 µM | inhibition [3]: 0%

O=C(CCN1CCCN(c2cnc3ccccc3n2)CC1)c1csc2ccccc12
inhibition [1]: 58% | Ki [2]: 9.55 µM | inhibition [3]: 23.8%

N#Cc1ccc(N2CC[C@H](NCCC(=O)c3csc4ccccc34)C2)cc1
inhibition [1]: 45.6% | Ki [2]: > 100 µM | inhibition [3]: 0%

O=[N+]([O-])c1ccc(N2CCCN(CCC(O)c3csc4ccccc34)CC2)c(C(F)(F)F)c1 (stereo unspecified)
Activity [11]: Active | inhibition [1]: 36% | Ki [2]: 8.71 µM | inhibition [3]: 0%

N#Cc1ccc(N2CCC(NCCC(O)c3csc4ccccc34)CC2)cc1 (stereo unspecified)
inhibition [1]: 80.4% | Activity (Mus musculus [4]): Non-toxic | Ki [2]: 1.66 µM | Activity (Mus musculus [5]): Active | Activity [6]: Active | inhibition [3]: 53.1% | IC50 [9]: 3.66 µM | Ki [10]: 0.158 µM

N#Cc1ccc(N2CCC(NCCC(=O)c3csc4ccccc34)CC2)cc1
Activity [11]: Active | Ki [2]: 7.24 µM
